System: HCV replication
Test: HCV replicon assay (luciferase), ET (Huh-lucubineo-ET) cell line
Type: cell-based
Conditions: Hepatitis C virus; tested at 10 μM; ET (Huh-lucubineo-ET) replicon cells; luciferase activity 48-72 hours; relative to no compound control
Protocol: A cell line, ET (Huh-lucubineo-ET) was used for screening of compounds of the present invention for inhibiting HCV replication. The ET cell line was stably transfected with RNA transcripts harboring a I389luc-ubi-neo/NS3-3′/ET; replicon with firefly luciferase-ubiquitin-neomycin phosphotransferase fusion protein and EMCV-IRES driven NS3-5B polyprotein containing the cell culture adaptive mutations (E1202G; T1280I; K1846T) (Krieger at al, 2001 and unpublished). The ET cells were grown in DMEM (Dulbeco's Modified Eagle's Medium), supplemented with 10% fetal calf serum, 2 mM Glutamine, Penicillin (100 IU/mL)/Streptomycin (100 μg/mL), 1× nonessential amino acids, and 250 μg/mL G418 (“Geneticin”). They were all available through Life Technologies (Bethesda, Md.). The cells were plated at 0.5-1.0×10^4 cells/well in the 96 well plates and incubated for 24 hrs before adding testing compounds. Then the compounds were added to the cells to achieve a final concentration of 0.1 nM to 50 μM and a final DMSO concentration of 0.5%. Luciferase activity were measured 48-72 hours later by adding a lysis buffer and the substrate (Catalog number Glo-lysis buffer E2661 and Bright-Glo luciferase system E2620 Promega, Madison, Wis.). Cells should not be too confluent during the assay. Percent inhibition of replication was plotted relative to no compound control. Under the same condition, cytotoxicity of the compounds was determined using cell proliferation reagent, WST-1 (Roche, Germany). The compounds showing antiviral activities, but no significant cytotoxicities were chosen to determine EC50 and TC50. For these determinations, a 10 point 2-fold serial dilution for each compound was used, which spans a concentration range of 1000 fold. EC50 and similarly TC50 values were calculated by fitting % inhibition at each concentration to the following equation:
% inhibition=100%/[(IC50/[I])^b+1]
where b is Hill's coefficient.
In some preferred embodiments compounds of Formula I will have a % inhibition of at least 20% when tested at 10 μM. In other embodiments the compounds of Formula I will have a % inhibition of at least 50% when tested at 10 μM.

Compared with `O=C(Cc1ccc(-c2ccc([C@@H]3CCCN3C(=O)OCc3ccccc3)cc2)cc1)NC1CC1` (stereo in doubt) [Compound 4002, 2-(4′-Cyclopropylcarbamoylmethyl-biphenyl-4-yl)-pyrrolidine-1-carboxylic acid benzyl ester], `O=C(Cc1cccc(-c2ccc([C@@H]3CCCN3C(=O)OCc3ccccc3)cc2)c1)NC1CC1` (stereo in doubt) [Compound 4043, 2-(3′-Cyclopropylcarbamoylmethyl-biphenyl-4-yl)-pyrrolidine-1-carboxylic acid benzyl ester] is higher in inhibition at 10 µM: 33.3% for the first, 40% for the second.

First: O=C(NC1CC1)c1ccc(-c2ccc([C@@H]3CCCN3C(=O)OCc3ccccc3)cc2)cc1 (stereo in doubt) [Compound 4044, 2-(4′-Cyclopropylcarbamoyl-biphenyl-4-yl)-pyrrolidine-1-carboxylic acid benzyl ester]
Second: O=C(NC1CC1)c1ccc(-c2ccc3nc([C@@H]4CCCN4C(=O)OCc4ccccc4)oc3c2)cc1 [Compound 4019, (S)-2-[6-(4-Cyclopropylcarbamoyl-phenyl)-benzooxazol-2-yl]-pyrrolidine-1-carboxylic acid benzyl ester]
The inhibition at 10 µM of the first is higher: 53.1% for the first, 50.5% for the second.

Compared with `O=C(NC1CC1)c1cccc(-c2ccc3nc([C@@H]4CCCN4C(=O)OCc4ccccc4)[nH]c3c2)c1` [Compound 4001, (S)-2-[6-(3-Cyclopropylcarbamoyl-phenyl)-1H-benzoimidazol-2-yl]-pyrrolidine-1-carboxylic acid benzyl ester], `O=C(NC1CC1)c1ccc(-c2ccc3nc([C@@H]4CCCN4C(=O)OCc4ccccc4)[nH]c3c2)cc1` [Compound 4020, (S)-2-[6-(4-Cyclopropylcarbamoyl-phenyl)-1H-benzoimidazol-2-yl]-pyrrolidine-1-carboxylic acid benzyl ester] is higher in inhibition at 10 µM: 94.5% for the first, 96.1% for the second.

Going from `O=C(Cc1cccc(-c2ccc3nc([C@@H]4CCCN4C(=O)OCc4ccccc4)[nH]c3c2)c1)NC1CC1` [Compound 4003, (S)-2-[6-(3-Cyclopropylcarbamoylmethyl-phenyl)-1H-benzoimidazol-2-yl]-pyrrolidine-1-carboxylic acid benzyl ester] to `O=C(Cc1ccc(-c2ccc3nc([C@@H]4CCCN4C(=O)OCc4ccccc4)[nH]c3c2)cc1)NC1CC1` [Compound 4021, (S)-2-[6-(4-Cyclopropylcarbamoylmethyl-phenyl)-1H-benzoimidazol-2-yl]-pyrrolidine-1-carboxylic acid benzyl ester], the inhibition at 10 µM falls from 97% to 64.5%.

Going from `O=C(Nc1ccc(-c2cccc(C#C[C@@H]3CCCN3C(=O)OCc3ccccc3)c2)cc1)C1CC1` [Compound 4004, (S)-2-[4′-(Cyclopropanecarbonyl-amino)-biphenyl-3-ylethynyl]-pyrrolidine-1-carboxylic acid benzyl ester] to `O=C(NCc1ccc(-c2cccc(C#C[C@@H]3CCCN3C(=O)OCc3ccccc3)c2)cc1)C1CC1` [Compound 4041, (S)-2-{4′-[(Cyclopropanecarbonyl-amino)-methyl]-biphenyl-3-ylethynyl}-pyrrolidine-1-carboxylic acid benzyl ester], the inhibition at 10 µM falls from 81.8% to 45.8%.

Going from `O=C(OCc1ccccc1)N1CCC[C@H]1c1nc2ccc(-c3ccc4[nH]ccc4c3)cc2s1` [Compound 4005, (S)-2-[6-(1H-Indol-5-yl)-benzothiazol-2-yl]-pyrrolidine-1-carboxylic acid benzyl ester] to `O=C(OCc1ccccc1)N1CCC[C@H]1c1nc2ccc(-c3ccc4[nH]ccc4c3)cc2o1` [Compound 4039, (S)-2-[6-(1H-Indol-5-yl)-benzooxazol-2-yl]-pyrrolidine-1-carboxylic acid benzyl ester], the inhibition at 10 µM rises from 1.7% to 49.6%.

Going from `O=C(OCc1ccccc1)N1CCC[C@H]1c1nc2ccc(-c3ccccc3)cc2[nH]1` [Compound 4007, (S)-2-(6-Phenyl-1H-benzoimidazol-2-yl)-pyrrolidine-1-carboxylic acid benzyl ester] to `Nc1ccc(-c2ccc3nc([C@@H]4CCCN4C(=O)OCc4ccccc4)[nH]c3c2)cc1` [Compound 4008, (S)-2-[6-(4-Amino-phenyl)-1H-benzoimidazol-2-yl]-pyrrolidine-1-carboxylic acid benzyl ester], the inhibition at 10 µM rises from 4.4% to 13.6%.

First: O=C(OCc1ccccc1)N1CCC[C@H]1c1nc2ccc(-c3ccc4ccccc4c3)cc2[nH]1 [Compound 4011, (S)-2-(6-Naphthalen-2-yl-1H-benzoimidazol-2-yl)-pyrrolidine-1-carboxylic acid benzyl ester]
Second: O=C(OCc1ccccc1)N1CCC[C@H]1c1nc2ccc(-c3ccc4[nH]ccc4c3)cc2[nH]1 [Compound 4035, (S)-2-[6-(1H-Indol-5-yl)-1H-benzoimidazol-2-yl]-pyrrolidine-1-carboxylic acid benzyl ester]
The inhibition at 10 µM of the first is lower: 87% for the first, 99.9% for the second.

Compared with `O=C(OCc1ccccc1)N1CCC[C@H]1c1nc2ccc(-c3cccc4cc[nH]c34)cc2[nH]1` [Compound 4014, (S)-2-[6-(1H-Indol-7-yl)-1H-benzoimidazol-2-yl]-pyrrolidine-1-carboxylic acid benzyl ester], `O=C(OCc1ccccc1)N1CCC[C@H]1c1nc2ccc(-c3cc([N+](=O)[O-])c4[nH]ccc4c3)cc2[nH]1` [Compound 4033, (S)-2-[6-(7-Nitro-1H-indol-5-yl)-1H-benzoimidazol-2-yl]-pyrrolidine-1-carboxylic acid benzyl ester] is higher in inhibition at 10 µM: 12.7% for the first, 97.5% for the second.

Compared with `COc1ccc(-c2ccc3nc([C@@H]4CCCN4C(=O)OCc4ccccc4)[nH]c3c2)c(OC)c1` [Compound 4017, (S)-2-[6-(2,4-Dimethoxy-phenyl)-1H-benzoimidazol-2-yl]-pyrrolidine-1-carboxylic acid benzyl ester], `O=C(OCc1ccccc1)N1CCC[C@H]1c1nc2ccc(-c3ccco3)cc2[nH]1` [Compound 4030, (S)-2-(6-Furan-2-yl-1H-benzoimidazol-2-yl)-pyrrolidine-1-carboxylic acid benzyl ester] is higher in inhibition at 10 µM: 42.4% for the first, 66.8% for the second.

Compared with `O=C(NC1CC1)c1ccc(-c2ccc3nc([C@@H]4CCCN4C(=O)OCc4ccccc4)sc3c2)cc1` [Compound 4022, 2-[6-(4-Cyclopropylcarbamoyl-phenyl)-benzothiazol-2-yl]-pyrrolidine-1-carboxylic acid benzylester], `NC(=O)Nc1ccc(-c2ccc3nc([C@@H]4CCCN4C(=O)OCc4ccccc4)[nH]c3c2)cc1` [Compound 4034, (S)-2-[6-(4-Ureido-phenyl)-1H-benzoimidazol-2-yl]-pyrrolidine-1-carboxylic acid benzyl ester] is higher in inhibition at 10 µM: 14.9% for the first, 24.1% for the second.

Compared with `O=C(Cc1ccc(-c2cccc(C#C[C@@H]3CCCN3C(=O)OCc3ccccc3)c2)cc1)NC1CC1` [Compound 4024, 2-(4′-Cyclopropylcarbamoyl-methyl-biphenyl-3-ylethynyl)-pyrrolidine-1-carboxylic acid benzylester], `O=C(Nc1cccc(-c2ccc3nc([C@@H]4CCCN4C(=O)OCc4ccccc4)[nH]c3c2)c1)C1CC1` [Compound 4037, (S)-2-{6-[3-(Cyclopropanecarbonyl-amino)-phenyl]-1H-benzoimidazol-2-yl}-pyrrolidine-1-carboxylic acid benzyl ester] is higher in inhibition at 10 µM: 45.9% for the first, 97.6% for the second.

First: O=C(OCc1ccccc1)N1CCC[C@H]1c1nc2ccc(-c3cccs3)cc2[nH]1 [Compound 4029, (S)-2-(6-Thiophen-2-yl-1H-benzoimidazol-2-yl)-pyrrolidine-1-carboxylic acid benzyl ester]
Second: CC(=O)c1cccc(-c2ccc3nc([C@@H]4CCCN4C(=O)OCc4ccccc4)[nH]c3c2)c1 [Compound 4045, (S)-2-[6-(3-Acetyl-phenyl)-1H-benzoimidazol-2-yl]-pyrrolidine-1-carboxylic acid benzyl ester]
The inhibition at 10 µM of the first is lower: 78.1% for the first, 99.8% for the second.

First: O=C(OCc1ccccc1)N1CCC[C@H]1c1nc2ccc(-c3ccc4c(c3)OCO4)cc2[nH]1 [Compound 4032, (S)-2-(6-Benzo[1,3]dioxol-5-yl-1H-benzoimidazol-2-yl)-pyrrolidine-1-carboxylic acid benzyl ester]
Second: N#Cc1ccc(-c2ccc3nc([C@@H]4CCCN4C(=O)OCc4ccccc4)[nH]c3c2)cc1 [Compound 4049, (S)-2-[6-(4-Cyano-phenyl)-1H-benzoimidazol-2-yl]-pyrrolidine-1-carboxylic acid benzyl ester]
The inhibition at 10 µM of the first is higher: 25.8% for the first, 20% for the second.

`O=C(OCc1ccccc1)N1CCC[C@H]1c1nc2ccc(-c3ccc4[nH]c5ccccc5c4c3)cc2[nH]1` [Compound 4047, (S)-2-[6-(9H-Carbazol-3-yl)-1H-benzoimidazol-2-yl]-pyrrolidine-1-carboxylic acid benzyl ester] showed an inhibition at 10 µM of 98.2%.

Reference: patent publication US20080193411A1, “Anti-viral Compounds” (Genelabs Technologies, Inc., priority 2006, published 2008)
